Reference: patent US20160122387A1, “Angiotensin Peptide and Pharmaceutical Compositions for Disease Treatment” (UNIVERSIDADE FEDERAL DE MINAS GERAIS - UFMG, priority 2012, published 2016)

What was measured:
[1] = system: thoracic aortic rings of spontaneously hypertensive rats (SHR); experiment: Vasorelaxation in thoracic aortic rings of spontaneously hypertensive rats (SHR) pre-contracted with phenylephrine; parameters: species or system rat; details: percentage of decrease of phenylephrine contraction
Procedure: Three- to four-mm rings of the descending thoracic aorta, free from adipose and connective tissue, were maintained in a gasified solution (95% 02 and 5% CO2) of Krebs-Henseleit, at 37° C. under 1.0 g tension, 1 hour for stabilization. The presence of functional endothelium was assessed by the ability of acetylcholine [ACh] (10 μmol/L) to induce more than 70% relaxation of vessels pre-contracted with phenylephrine (Phe) ([…]). The mechanical activity, recorded isometrically by a force transducer, was fed into a recorder-amplifier and a computer equipped with an analog-digital converter board, using CVMS data acquisition/recording software.
The vessels from normotensive Wistar rats and spontaneously hypertensive rats (SHR) were pre-contracted in the same voltage level (approximately 1.0 g tension) at the submaximal concentration of phenylephrine ([…]). Arg0-Ang-(1-7) and Ang-(1-7) were added in increasing cumulative concentrations as the response to phenylephrine was stabilized. Results are presented as mean±SEM. One-way analysis of variance (ANOVA) with Newman-Keuls post test of multiple comparisons was used to compare the concentration response curves obtained in the aortic rings. The vasodilatation effect of arg0-Ang-(1-7) and Ang-(1-7) was expressed as the percentage of decrease in peak concentration induced by phenylephrine. […]

protein kinase B (AKT) = experiment: Activation (Ser473 phosphorylation) of AKT in neonatal rat cardiomyocytes, Western blot; format: cell-based; details: cardiomyocyte cells, 10^−9 mol/L, five minutes
Procedure: Wistar neonatal rat cardiomyocytes were cultured in regular growth medium consisting of DEMEM medium supplemented with 10% horse serum, 5% fetal bovine serum, 1% penicillin/streptomycin and 0.1% fibroblast inhibitor. The cells were maintained in serum free medium for three hours before the start of treatment. The study was carried out acutely, for five minutes using a concentration of 10^−9 mol/L of the following drugs diluted in culture medium: Ang-(1-7), arg0-Ang-(1-7) and insulin. Cells incubated with culture medium only were used as control group.
Total protein was isolated from cardiomyocytes cells with lysis buffer containing protease inhibitors cocktail (Days-Peixoto et al., Hypertension 52: 542-548, 2008). Sixty micrograms of total protein was separated by electrophoresis, transferred to a nitrocellulose membrane, blocked with 5% skimmed milk powder diluted in Tris-saline containing 0.1% Tween, and finally incubated overnight with anti-AKT polyclonal antibody (1:1000), anti-Ser473 phospho-Akt (1:600), anti-glyceraldehyde-3-phosphate dehydrogenase (GAPDH—1:1000). Subsequently, the membranes were incubated with fluorescently labeled secondary antibody (1:10000), followed by identification and quantitation by the Odyssey program (LI-COR).
The results are presented as mean+E.PM. […]

rat receptor Mas = target: T1, rat receptor Mas (Rattus norvegicus, UniProt P12526); experiment: Nitric oxide production in CHO cells transfected with the Mas receptor (DAF-FM fluorescence); format: cell-based; details: 10^−7 mol/L, 60 minutes
T1 construct: expressed in transfected cells
T1 sequence (P12526 1-324): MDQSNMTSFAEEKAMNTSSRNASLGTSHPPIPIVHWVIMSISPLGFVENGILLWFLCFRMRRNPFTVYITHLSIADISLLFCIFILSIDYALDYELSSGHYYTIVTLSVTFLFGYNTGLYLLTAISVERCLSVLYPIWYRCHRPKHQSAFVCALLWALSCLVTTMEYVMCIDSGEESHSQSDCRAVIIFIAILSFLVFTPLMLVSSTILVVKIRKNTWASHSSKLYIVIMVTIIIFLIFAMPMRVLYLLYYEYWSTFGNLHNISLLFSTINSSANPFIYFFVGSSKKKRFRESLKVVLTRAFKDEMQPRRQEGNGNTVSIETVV
Procedure: Chinese hamster ovary cells (CHO) were stably transfected with the cDNA of the rat receptor Mas driven by a cytomegalovirus promoter and selected using neomycin. Nitric oxide production was monitored using the indicator NO 4-amino-5-methylamino-2′,7′-difluorofluorescent diacetate.
Confluent CHO cells transfected with the Mas receptor and cultured in 6-well plates were preincubated in 1.5 ml of serum free medium (DMEM) containing DAF-FM (least 5 uM) and supplemented with 0.2% BSA, 0.005% bacitracin, […] phenylmethylsulfonyl fluoride and […] 1, 10-phenanthroline at 37° C. in a humidified incubator in an atmosphere with 5% CO2. After 30 minutes, cells were washed and incubated with arg0-Ang-(1-7) and Ang-(1-7) at 10^−7 mol/L for 60 minutes. Subsequently, the cells were washed twice and the slides were mounted for confocal microscopy for evaluation.
Relative fluorescence measurements were made using a Zeiss LSM 510 laser scanning META confocal microscope excited at 488 nm with an argon-ion laser (objective lens immersion oil, 63×).
Results are presented as mean±SEM. One-way analysis of variance with Bonferroni post-test for multiple comparisons was used to compare the concentration-response curve in CHO cells transfected with the receptor Mas. All statistical analyses were considered significant when p<0.05.

[2] = system: Human alveolar adenocarcinoma cells (A549); experiment: Anti-proliferative effect in A549 cells (AlamarBlue cell viability); format: cell-based; details: 1×10^−4 to 2×10^−7M, 48 hours
Procedure: Human alveolar adenocarcinoma cells (A549), cultured in DEMEM supplemented with 10% fetal bovine serum and 1% penicillin/streptomycin, were distributed into 96 wells plate at the density of 2×10^4 cells/well. After 48 hours of incubation in an incubator at 37° C., the arg0-angiotensin-(1-7) and angiotensin (1-7) peptides were added to the wells and serially diluted (1×10^−4 to 2×10^−7M) in culture medium free of fetal bovine serum. Wells not plated with cells and wells with cells but stimulated only with culture medium were used as controls. The stimulus, which lasted 48 hours, was followed by the addition of AlamarBlue reagent (Invitrogen), used to detect cell viability.

With Asp-Arg-Val-Tyr-Ile-His-Pro [Ang-(1-7)] the Emax of vasorelaxation [1] was 30±3%, the “activation of protein kinase B (AKT)” value (protein kinase B (AKT)) was “triggered the activation of protein kinase B (AKT)” and the nitric oxide production (rat receptor Mas) was “stimulated nitric oxide production”. For the same substance, the anti-proliferative effect [2] was “anti-proliferative effect”.
